Reference: ChEMBL document CHEMBL4507268 (2021)

Assays:
Conditions in all cases: Compound concentration 1.0 uM
[1] = molecular target: Proto-oncogene tyrosine-protein kinase receptor Ret (Homo sapiens) (UniProt P07949)
[2] = molecular target: MAPK/MAK/MRK overlapping kinase (Homo sapiens) (UniProt Q9UQ07)
[3] = molecular target: Tyrosine-protein kinase Srms (Homo sapiens) (UniProt Q9H3Y6)
[4] = molecular target: T1, Serine/threonine-protein kinase Sgk1 (Homo sapiens) (UniProt O00141)
T1 sequence (whole entry): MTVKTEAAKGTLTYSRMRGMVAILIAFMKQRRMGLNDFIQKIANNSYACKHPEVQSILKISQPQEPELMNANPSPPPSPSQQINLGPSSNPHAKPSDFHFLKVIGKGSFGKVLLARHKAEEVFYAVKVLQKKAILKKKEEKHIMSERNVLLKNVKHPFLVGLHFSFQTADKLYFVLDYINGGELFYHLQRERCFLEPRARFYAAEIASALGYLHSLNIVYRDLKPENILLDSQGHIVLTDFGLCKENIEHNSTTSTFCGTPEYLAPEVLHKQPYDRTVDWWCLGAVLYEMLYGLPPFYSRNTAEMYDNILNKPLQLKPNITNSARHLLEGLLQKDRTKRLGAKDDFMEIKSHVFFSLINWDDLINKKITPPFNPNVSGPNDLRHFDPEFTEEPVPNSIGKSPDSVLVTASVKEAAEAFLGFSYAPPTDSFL

[5] = molecular target: MAP kinase-activated protein kinase 2 (Homo sapiens) (UniProt P49137)
MAP kinase-activated protein kinase 2 (Homo sapiens), sequence (P49137 whole entry, looked up): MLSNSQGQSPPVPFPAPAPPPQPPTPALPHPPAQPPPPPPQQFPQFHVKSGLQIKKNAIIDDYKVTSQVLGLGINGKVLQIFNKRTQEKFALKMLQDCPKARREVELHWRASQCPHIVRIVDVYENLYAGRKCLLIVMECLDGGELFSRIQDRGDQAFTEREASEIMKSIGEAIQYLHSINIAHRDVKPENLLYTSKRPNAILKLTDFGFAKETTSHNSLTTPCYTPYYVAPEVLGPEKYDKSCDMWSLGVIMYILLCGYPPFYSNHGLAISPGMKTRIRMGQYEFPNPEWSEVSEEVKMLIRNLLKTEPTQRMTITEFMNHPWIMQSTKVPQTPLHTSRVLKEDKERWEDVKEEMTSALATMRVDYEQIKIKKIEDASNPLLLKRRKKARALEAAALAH

[6] = molecular target: T2, Protein kinase C iota type (Homo sapiens) (UniProt P41743)
T2 sequence (whole entry): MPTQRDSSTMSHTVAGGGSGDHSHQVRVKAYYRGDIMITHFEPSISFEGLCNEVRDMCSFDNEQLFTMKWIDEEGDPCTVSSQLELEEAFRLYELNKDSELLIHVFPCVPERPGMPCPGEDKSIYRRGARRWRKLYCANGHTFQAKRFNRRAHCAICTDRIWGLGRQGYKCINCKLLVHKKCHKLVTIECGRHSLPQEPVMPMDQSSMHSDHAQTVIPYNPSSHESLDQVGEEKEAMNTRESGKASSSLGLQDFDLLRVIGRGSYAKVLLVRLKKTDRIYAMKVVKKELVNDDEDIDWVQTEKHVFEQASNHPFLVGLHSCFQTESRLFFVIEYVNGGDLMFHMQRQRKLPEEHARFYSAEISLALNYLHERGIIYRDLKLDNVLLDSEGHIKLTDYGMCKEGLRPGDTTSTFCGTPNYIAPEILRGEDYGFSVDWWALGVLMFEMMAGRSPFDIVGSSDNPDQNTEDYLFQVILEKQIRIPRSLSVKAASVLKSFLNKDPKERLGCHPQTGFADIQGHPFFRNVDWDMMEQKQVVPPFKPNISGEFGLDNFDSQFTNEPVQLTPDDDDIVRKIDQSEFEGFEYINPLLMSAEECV

[7] = molecular target: Receptor tyrosine-protein kinase erbB-4 (Homo sapiens) (UniProt Q15303)
Receptor tyrosine-protein kinase erbB-4 (Homo sapiens), sequence (Q15303 whole entry): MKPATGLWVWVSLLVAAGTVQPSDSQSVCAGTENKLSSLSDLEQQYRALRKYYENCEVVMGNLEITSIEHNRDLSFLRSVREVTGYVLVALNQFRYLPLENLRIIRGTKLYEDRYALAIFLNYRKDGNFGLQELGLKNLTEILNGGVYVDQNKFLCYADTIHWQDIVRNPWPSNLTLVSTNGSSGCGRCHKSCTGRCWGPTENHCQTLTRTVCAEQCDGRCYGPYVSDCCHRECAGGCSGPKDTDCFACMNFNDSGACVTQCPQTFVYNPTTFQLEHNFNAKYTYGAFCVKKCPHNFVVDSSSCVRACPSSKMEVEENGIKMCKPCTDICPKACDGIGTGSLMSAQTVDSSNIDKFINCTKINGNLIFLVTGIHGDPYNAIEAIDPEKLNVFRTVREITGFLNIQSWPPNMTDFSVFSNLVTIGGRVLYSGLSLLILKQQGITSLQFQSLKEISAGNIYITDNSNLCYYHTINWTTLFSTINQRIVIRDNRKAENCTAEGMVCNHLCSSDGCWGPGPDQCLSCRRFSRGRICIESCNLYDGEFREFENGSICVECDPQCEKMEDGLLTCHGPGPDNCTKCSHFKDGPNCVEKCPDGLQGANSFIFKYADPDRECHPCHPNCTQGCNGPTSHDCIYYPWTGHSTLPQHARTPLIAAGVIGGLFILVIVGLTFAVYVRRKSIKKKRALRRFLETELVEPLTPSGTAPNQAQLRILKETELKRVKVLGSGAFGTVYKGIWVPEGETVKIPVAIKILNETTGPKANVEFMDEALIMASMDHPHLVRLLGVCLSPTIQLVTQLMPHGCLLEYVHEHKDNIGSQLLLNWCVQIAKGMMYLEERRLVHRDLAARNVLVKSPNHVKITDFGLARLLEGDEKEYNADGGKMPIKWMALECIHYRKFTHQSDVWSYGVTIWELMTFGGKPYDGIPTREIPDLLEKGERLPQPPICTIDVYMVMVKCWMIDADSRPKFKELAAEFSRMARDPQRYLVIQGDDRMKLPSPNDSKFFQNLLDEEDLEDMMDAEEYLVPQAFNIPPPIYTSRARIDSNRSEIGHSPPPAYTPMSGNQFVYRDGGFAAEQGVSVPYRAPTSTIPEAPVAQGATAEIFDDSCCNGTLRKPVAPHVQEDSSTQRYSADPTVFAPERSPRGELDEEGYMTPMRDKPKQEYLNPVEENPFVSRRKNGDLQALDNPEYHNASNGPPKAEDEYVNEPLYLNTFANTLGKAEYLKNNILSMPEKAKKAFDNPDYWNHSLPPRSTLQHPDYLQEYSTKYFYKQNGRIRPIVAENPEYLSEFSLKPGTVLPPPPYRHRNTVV

[8] = molecular target: Serine/threonine-protein kinase PAK 3 (Homo sapiens) (UniProt O75914)
[9] = molecular target: Platelet-derived growth factor receptor beta (Homo sapiens) (UniProt P09619)
[10] = molecular target: Angiopoietin-1 receptor (Homo sapiens) (UniProt Q02763)
Angiopoietin-1 receptor (Homo sapiens), sequence (Q02763 whole entry): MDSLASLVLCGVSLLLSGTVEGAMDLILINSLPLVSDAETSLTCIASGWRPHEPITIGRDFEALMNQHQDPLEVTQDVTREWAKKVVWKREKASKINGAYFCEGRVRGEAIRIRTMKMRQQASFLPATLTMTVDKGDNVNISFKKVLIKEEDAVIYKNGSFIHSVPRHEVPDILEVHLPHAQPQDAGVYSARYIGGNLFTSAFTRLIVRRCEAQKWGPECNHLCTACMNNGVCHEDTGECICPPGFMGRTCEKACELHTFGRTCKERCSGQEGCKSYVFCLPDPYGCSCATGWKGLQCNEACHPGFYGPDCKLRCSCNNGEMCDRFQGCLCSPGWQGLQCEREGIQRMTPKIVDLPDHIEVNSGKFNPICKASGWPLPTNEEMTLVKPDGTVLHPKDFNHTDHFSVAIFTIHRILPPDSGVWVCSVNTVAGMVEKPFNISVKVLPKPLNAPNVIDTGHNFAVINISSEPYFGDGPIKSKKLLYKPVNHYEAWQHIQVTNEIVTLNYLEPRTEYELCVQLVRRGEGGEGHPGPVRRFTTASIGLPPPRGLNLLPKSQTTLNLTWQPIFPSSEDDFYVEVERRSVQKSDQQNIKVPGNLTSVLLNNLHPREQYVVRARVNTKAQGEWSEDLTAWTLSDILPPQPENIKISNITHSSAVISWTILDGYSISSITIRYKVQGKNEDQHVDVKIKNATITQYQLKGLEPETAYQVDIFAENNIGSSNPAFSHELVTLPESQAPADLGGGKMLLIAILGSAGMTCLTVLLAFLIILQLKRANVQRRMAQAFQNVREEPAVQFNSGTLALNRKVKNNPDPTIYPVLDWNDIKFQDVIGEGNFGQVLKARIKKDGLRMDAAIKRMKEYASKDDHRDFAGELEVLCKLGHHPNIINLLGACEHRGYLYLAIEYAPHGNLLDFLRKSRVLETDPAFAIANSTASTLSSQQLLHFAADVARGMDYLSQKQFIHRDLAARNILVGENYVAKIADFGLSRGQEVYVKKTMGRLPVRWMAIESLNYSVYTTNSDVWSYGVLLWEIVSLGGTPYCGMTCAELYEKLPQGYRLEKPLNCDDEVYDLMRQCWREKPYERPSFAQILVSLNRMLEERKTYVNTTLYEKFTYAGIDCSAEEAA

[11] = molecular target: Serine/threonine-protein kinase 25 (Homo sapiens) (UniProt O00506)
Serine/threonine-protein kinase 25 (Homo sapiens), sequence (O00506 whole entry, looked up, canonical isoform): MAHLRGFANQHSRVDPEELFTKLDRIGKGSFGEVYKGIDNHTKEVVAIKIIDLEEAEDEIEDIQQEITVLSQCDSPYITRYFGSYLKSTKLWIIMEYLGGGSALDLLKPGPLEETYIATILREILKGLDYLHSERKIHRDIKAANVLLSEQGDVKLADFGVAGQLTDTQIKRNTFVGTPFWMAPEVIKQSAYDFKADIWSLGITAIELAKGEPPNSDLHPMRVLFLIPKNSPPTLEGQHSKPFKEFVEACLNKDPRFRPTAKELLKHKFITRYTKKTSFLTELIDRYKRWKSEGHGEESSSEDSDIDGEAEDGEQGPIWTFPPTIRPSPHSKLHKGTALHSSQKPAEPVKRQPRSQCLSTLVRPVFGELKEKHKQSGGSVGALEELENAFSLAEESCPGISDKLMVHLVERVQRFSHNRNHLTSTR

[12] = molecular target: Phosphorylase b kinase gamma catalytic chain, skeletal muscle/heart isoform (Homo sapiens) (UniProt Q16816)
Phosphorylase b kinase gamma catalytic chain, skeletal muscle/heart isoform (Homo sapiens), sequence (Q16816 whole entry, looked up, canonical isoform): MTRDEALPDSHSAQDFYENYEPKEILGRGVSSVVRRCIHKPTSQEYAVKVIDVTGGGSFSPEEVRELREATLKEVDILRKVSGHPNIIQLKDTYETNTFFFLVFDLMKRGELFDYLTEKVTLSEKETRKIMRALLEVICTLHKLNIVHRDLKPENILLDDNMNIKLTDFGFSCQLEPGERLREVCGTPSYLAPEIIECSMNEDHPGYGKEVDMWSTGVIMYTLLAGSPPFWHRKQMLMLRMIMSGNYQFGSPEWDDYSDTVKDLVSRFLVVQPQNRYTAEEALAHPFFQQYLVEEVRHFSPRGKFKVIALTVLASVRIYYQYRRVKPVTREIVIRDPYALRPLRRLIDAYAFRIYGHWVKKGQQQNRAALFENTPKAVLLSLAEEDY

[13] = molecular target: Serine/threonine-protein kinase 26 (Homo sapiens) (UniProt Q9P289)
Serine/threonine-protein kinase 26 (Homo sapiens), sequence (Q9P289 2-416 limits assumed): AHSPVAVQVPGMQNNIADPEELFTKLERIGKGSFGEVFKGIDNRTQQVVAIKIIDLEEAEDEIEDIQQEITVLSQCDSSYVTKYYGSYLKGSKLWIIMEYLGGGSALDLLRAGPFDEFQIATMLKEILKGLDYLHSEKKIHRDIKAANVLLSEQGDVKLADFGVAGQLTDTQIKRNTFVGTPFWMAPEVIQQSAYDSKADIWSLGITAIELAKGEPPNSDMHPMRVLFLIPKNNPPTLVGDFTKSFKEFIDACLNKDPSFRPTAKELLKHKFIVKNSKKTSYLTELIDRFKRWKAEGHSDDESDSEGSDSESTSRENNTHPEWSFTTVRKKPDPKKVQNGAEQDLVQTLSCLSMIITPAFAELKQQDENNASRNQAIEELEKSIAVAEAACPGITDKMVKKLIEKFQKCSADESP

[14] = molecular target: Dual specificity protein kinase CLK3 (Homo sapiens) (UniProt P49761)
[15] = molecular target: SRSF protein kinase 3 (Homo sapiens) (UniProt Q9UPE1)
[16] = molecular target: Ribosomal protein S6 kinase alpha-3 (Homo sapiens) (UniProt P51812)
[17] = molecular target: T3, cAMP-dependent protein kinase catalytic subunit PRKX (Homo sapiens) (UniProt P51817)
T3 sequence (whole entry): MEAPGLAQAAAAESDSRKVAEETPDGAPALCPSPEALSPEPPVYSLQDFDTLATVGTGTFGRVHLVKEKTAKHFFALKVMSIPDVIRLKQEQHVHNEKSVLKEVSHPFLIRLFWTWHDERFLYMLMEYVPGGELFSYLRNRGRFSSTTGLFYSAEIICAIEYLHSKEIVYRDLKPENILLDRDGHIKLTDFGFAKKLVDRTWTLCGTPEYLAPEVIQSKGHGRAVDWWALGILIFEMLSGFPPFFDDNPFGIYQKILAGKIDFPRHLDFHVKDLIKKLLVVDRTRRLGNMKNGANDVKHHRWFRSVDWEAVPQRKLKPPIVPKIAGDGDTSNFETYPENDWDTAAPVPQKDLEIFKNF

[18] = molecular target: T4, Tyrosine-protein kinase ZAP-70 (Homo sapiens) (UniProt P43403)
T4 sequence (whole entry): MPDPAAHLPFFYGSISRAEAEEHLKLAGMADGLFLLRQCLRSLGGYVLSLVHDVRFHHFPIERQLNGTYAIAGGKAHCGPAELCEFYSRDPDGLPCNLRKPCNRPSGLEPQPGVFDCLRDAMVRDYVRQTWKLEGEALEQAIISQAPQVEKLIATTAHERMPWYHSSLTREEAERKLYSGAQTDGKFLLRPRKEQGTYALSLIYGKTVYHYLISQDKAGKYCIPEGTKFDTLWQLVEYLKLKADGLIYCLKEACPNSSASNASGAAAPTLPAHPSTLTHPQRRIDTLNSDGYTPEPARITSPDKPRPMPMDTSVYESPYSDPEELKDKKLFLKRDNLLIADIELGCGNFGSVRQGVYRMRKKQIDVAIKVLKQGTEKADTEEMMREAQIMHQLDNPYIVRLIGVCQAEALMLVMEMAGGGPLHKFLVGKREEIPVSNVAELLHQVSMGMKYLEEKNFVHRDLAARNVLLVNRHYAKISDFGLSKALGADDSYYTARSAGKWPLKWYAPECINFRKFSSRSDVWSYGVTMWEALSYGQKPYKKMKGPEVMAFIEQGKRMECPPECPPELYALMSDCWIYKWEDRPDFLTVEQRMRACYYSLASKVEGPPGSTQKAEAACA

Measured: % residual kinase activity

MAPK/MAK/MRK overlapping kinase (Homo sapiens), sequence (Q9UQ07 whole entry): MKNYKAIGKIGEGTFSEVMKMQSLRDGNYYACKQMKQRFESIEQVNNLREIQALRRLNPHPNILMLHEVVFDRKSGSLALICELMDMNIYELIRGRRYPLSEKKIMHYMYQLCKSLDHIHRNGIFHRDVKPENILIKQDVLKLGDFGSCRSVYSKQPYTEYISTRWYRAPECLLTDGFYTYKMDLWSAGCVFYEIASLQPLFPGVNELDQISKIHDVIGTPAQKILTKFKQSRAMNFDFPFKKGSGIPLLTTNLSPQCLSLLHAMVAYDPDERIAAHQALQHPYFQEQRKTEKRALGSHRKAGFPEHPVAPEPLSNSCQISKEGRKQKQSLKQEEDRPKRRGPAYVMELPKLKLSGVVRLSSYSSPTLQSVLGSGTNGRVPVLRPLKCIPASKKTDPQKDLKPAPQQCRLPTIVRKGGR
Tyrosine-protein kinase Srms (Homo sapiens), sequence (Q9H3Y6 whole entry): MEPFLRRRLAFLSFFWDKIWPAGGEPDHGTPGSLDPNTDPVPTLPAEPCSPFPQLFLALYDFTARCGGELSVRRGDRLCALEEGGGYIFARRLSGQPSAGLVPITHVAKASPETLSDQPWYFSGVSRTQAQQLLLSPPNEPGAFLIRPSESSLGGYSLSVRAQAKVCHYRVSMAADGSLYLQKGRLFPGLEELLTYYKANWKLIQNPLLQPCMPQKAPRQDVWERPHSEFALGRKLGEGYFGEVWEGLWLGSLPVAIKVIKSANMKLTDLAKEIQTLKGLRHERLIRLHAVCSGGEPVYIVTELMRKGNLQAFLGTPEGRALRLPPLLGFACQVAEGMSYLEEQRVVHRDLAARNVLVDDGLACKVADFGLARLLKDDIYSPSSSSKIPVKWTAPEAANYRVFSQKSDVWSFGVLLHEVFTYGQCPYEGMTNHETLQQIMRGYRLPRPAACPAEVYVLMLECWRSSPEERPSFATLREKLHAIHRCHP

CN1CCN(c2cnc3c(C4CCN(C(=O)c5ccc(OC(F)(F)F)cc5N)CC4)ncnc3c2)CC1 [BAY-885]
inactive: [1] 122% | [2] 94% | [3] 81% | [4] 113% | [5] 81% | [6] 102% | [7] 98% | [8] 106% | [9] 107% | [10] 84% | [11] 87% | [12] 103% | [13] 103% | [14] 111% | [15] 78% | [16] 109% | [17] 121% | [18] 108%
